Experimental data: ChEMBL document CHEMBL5321295, “Targeted Degradation of Alpha-Synuclein by Autophagosome-Anchoring Chimera Peptides” (J Med Chem, 2023)
The source made the active and inactive calls. No cut-off for these calls is given here.

How the values were obtained:
[1] = Toxicity in C57BL/6 mouse assessed as histological change in liver at 50 to 200 mg/kg/day treated for 5 days by H and E staining based analysis; type: organism-based; conditions: in vivo, 120 h, dose 50-200 mg/kg/day, time 5 day
[2] = Drug localization in HEK293T cells overexpressing mCherry-fused alpha-synuclein (unknown origin) assessed as colocalization of lysosomes at 50 uM incubated for 2 hrs by LyTG staining based confocal laser scanning microscopy; type: ADME, cell-based; conditions: human, hek-293t
[3] = target: T1, Alpha-synuclein (Homo sapiens, UniProt P37840); test: Induction of alpha-synuclein (unknown origin) degradation overexpressed in HEK293T cells with LC3B knockdown at 50 uM incubated for 24 hrs by immunoblot analysis; type: cell-based
[4] = target: T2, Microtubule-associated protein 1 light chain 3 beta (Homo sapiens, UniProt Q9GZQ8); test: Induction of LC3B-mediated autophagy flux in HEK293T cells overexpressing alpha-synuclein (unknown origin) assessed as increase in ratio of LC3B-II to LC3B-I levels incubated for 4 hrs by immunoblot analysis; type: cell-based; conditions: dose <= 100.0 µM
[5] = target: T2, Microtubule-associated protein 1 light chain 3 beta; test: Binding affinity to LC3B in HEK293T cells overexpressing alpha-synuclein (unknown origin) assessed as shift in denaturation at 50 uM incubated for 4 hrs followed by heating at 40 to 75 degreeC for 3 mins by CETSA assay; type: cell-based; conditions: time 243.0 min
[6] = test system: SH-SY5Y; test: Cytoprotective activity in human SH-SY5Y cells transfected with alpha-synuclein (unknown origin) assessed as early apoptotic cells at 100 uM measured after 24 hrs by […] based flow cytometry (reference value: 0.17 %); type: functional
[7] = target: T1, Alpha-synuclein; test: Induction of alpha-synuclein (unknown origin) degradation overexpressed in HEK293T cells infected with adenovirus expressing mCherry-EGFP-LC3B at 50 uM incubated for 3 hrs by immunoblot analysis; type: cell-based
[8] = test system: HEK-293T; test: Downregulation of EIF2S1 expression in HEK293T cells at 100 uM incubated for 24 hrs by proteomic profiling analysis; type: functional, cell-based; conditions: Homo sapiens
[9] = test system: Mus musculus; test: Neuroprotective activity in MPTP-induced anxiety-like status in C57BL/6 mouse assessed as increase in zone transition number of mouse track at 50 mg/kg/day, iv treated for 5 days measured after 4 days by open field test; type: functional, organism-based; conditions: time 9.0 day
[10] = test system: Mus musculus; test: Downregulation of total aggregated protein level in substantia nigra pars compacta of MPTP-treated C57BL/6 mouse at 50 mg/kg/day, iv treated for 5 days by ThS staining based analysis; type: functional, organism-based; conditions: time 5.0 day
[11] = test system: HEK-293T; test: Downregulation of AKR1B1 expression in HEK293T cells at 100 uM incubated for 24 hrs by proteomic profiling analysis; type: functional, cell-based; conditions: Homo sapiens
[12] = Toxicity in C57BL/6 mouse assessed as change in creatinine level at 50 to 200 mg/kg/day treated for 5 days; type: organism-based; conditions: in vivo, 120 h, dose 50-200 mg/kg/day, time 5 day
[13] = test system: Mus musculus; test: Neuroprotective activity in MPTP-treated C57BL/6 mouse assessed as neuron viability in substantia nigra pars compacta at 50 mg/kg/day, iv treated for 5 days by Nissl staining based microscopy; type: functional, organism-based; conditions: time 5.0 day
[14] = test system: Mus musculus; test: Neuroprotective activity in MPTP-induced cognitive impairment in C57BL/6 mouse assessed as increase in platform crossover number in probe trial phase at 50 mg/kg/day, iv treated for 5 days measured after 5 to 8 days days by morris water maze test; type: functional, organism-based; conditions: time 10-13 day
[15] = test system: SH-SY5Y; test: Cytoprotective activity in human SH-SY5Y cells assessed as increase in CCCP-induced mitochondrial membrane potential level at 100 uM measured after 24 hrs by JC-1 staining based confocal laser scanning microscopy; type: functional, cell-based
[16] = test system: Mus musculus; test: Neuroprotective activity in MPTP-treated C57BL/6 mouse assessed as increase in dopaminergic neurons of substantia nigra pars compacta at 50 mg/kg/day, iv treated for 5 days by immunofluorescent staining of tyrosine hydroxylase based microscopy; type: functional, organism-based; conditions: time 5.0 day
[17] = test system: Mus musculus; test: Neuroprotective activity in MPTP-induced cognitive impairment in C57BL/6 mouse assessed as decrease in total distance travelled in navigation trial phase at 50 mg/kg/day, iv treated for 5 days measured after 5 to 8 days days by morris water maze test; type: functional, organism-based; conditions: time 10-13 day
[18] = target: T2, Microtubule-associated protein 1 light chain 3 beta; test: Induction of LC3B-mediated autophagy flux in HEK293T cells overexpressing alpha-synuclein (unknown origin) cotransfected with adenovirus-packaged plasmid encoding mCherry-EGFP-fused LC3B assessed as increase in number of autophagosomes incubated for 4 hrs by confocal laser scanning microscopy; type: cell-based; conditions: dose <= 100.0 µM
[19] = test system: SH-SY5Y; test: Cytoprotective activity in human SH-SY5Y cells transfected with alpha-synuclein (unknown origin) assessed as cell viability at 25 uM by CCK8 assay relative to control; type: functional; conditions: read-out: Activity
[20] = test system: Mus musculus; test: Neuroprotective activity in MPTP-induced cognitive impairment in C57BL/6 mouse assessed as increase in distance travelled in target quadrant in probe trial phase at 50 mg/kg/day, iv treated for 5 days measured after 5 to 8 days days by morris water maze test; type: functional, organism-based; conditions: time 10-13 day
[21] = Chemical stability of compound in cell culture medium at 50 uM measured for 24 hrs by HPLC analysis; type: physicochemical
[22] = test system: HEK-293T; test: Downregulation of SLC25A3 expression in HEK293T cells at 100 uM incubated for 24 hrs by proteomic profiling analysis; type: functional, cell-based; conditions: Homo sapiens
[23] = Toxicity in C57BL/6 mouse assessed as tremor at 50 to 200 mg/kg/day treated for 5 days; type: organism-based; conditions: in vivo, 120 h, dose 50-200 mg/kg/day, time 5 day
[24] = test system: HEK-293T; test: Downregulation of DYNC1I2 expression in HEK293T cells at 100 uM incubated for 24 hrs by proteomic profiling analysis; type: functional, cell-based; conditions: Homo sapiens
[25] = Toxicity in C57BL/6 mouse assessed as histological change in kidney at 50 to 200 mg/kg/day treated for 5 days by H and E staining based analysis; type: organism-based; conditions: in vivo, 120 h, dose 50-200 mg/kg/day, time 5 day
[26] = test system: Mus musculus; test: Neuroprotective activity in MPTP-induced anxiety-like status in C57BL/6 mouse assessed as increase in distance travelled in zone centers of mouse track at 50 mg/kg/day, iv treated for 5 days measured after 4 days by open field test; type: functional, organism-based; conditions: time 9.0 day
[27] = test system: Mus musculus; test: Downregulation of phosphorylated alpha-synuclein at S129 residue level in substantia nigra pars compacta of MPTP-treated C57BL/6 mouse at 50 mg/kg/day, iv treated for 5 days by dot blot analysis; type: functional, organism-based; conditions: time 5.0 day
[28] = Toxicity in C57BL/6 mouse assessed as change in CKMB level at 50 to 200 mg/kg/day treated for 5 days; type: organism-based; conditions: in vivo, 120 h, dose 50-200 mg/kg/day, time 5 day
[29] = target: T1, Alpha-synuclein; test: Induction of alpha-synuclein (unknown origin) degradation overexpressed in HEK293T cells infected with adenovirus expressing mCherry-EGFP-LC3B at 50 uM incubated upto 24 hrs by immunoblot analysis; type: cell-based
[30] = test system: HEK-293T; test: Downregulation of MYL12A expression in HEK293T cells at 100 uM incubated for 24 hrs by proteomic profiling analysis; type: functional, cell-based; conditions: Homo sapiens
[31] = target: T2, Microtubule-associated protein 1 light chain 3 beta; test: Induction of LC3B-mediated autophagy flux in HEK293T cells overexpressing alpha-synuclein (unknown origin) cotransfected with adenovirus-packaged plasmid encoding mCherry-EGFP-fused LC3B assessed as increase in density of lysosomes upto 100 uM incubated for 4 hrs by LyTR staining based confocal laser scanning microscopy; type: cell-based
[32] = Toxicity in C57BL/6 mouse assessed as ataxia at 50 to 200 mg/kg/day treated for 5 days; type: organism-based; conditions: in vivo, 120 h, dose 50-200 mg/kg/day, time 5 day
[33] = test system: SH-SY5Y; test: Cytoprotective activity in human SH-SY5Y cells assessed as decrease in CCCP-induced ROS level at 100 uM measured after 24 hrs by DCFH-DA staining based confocal laser scanning microscopy; type: functional, cell-based

## CC(C)C[C@H](NC(=O)[C@H](Cc1c[nH]cn1)NC(=O)[C@@H](NC(=O)[C@H](Cc1c[nH]c2ccccc12)NC(=O)[C@H](CC(=O)O)NC(=O)[C@H](CC(=O)O)NC(=O)[C@H](CC(=O)O)NC(=O)CNC(=O)CNC(=O)[C@H](CO)NC(=O)[C@H](CO)NC(=O)CNC(=O)[C@H](CO)NC(=O)CNC(=O)[C@H](CCCNC(=N)N)NC(=O)[C@@H](NC(=O)[C@H](CCCCN)NC(=O)[C@H](CO)NC(=O)CNC(=O)[C@@H](NC(=O)[C@H](Cc1ccc(O)cc1)NC(=O)[C@H](CC(C)C)NC(=O)[C@@H](NC(=O)CN)C(C)C)C(C)C)[C@H](C)O)[C@@H](C)O)C(=O)N[C@@H](CO)C(=O)N[C@@H](CO)C(=O)N[C@@H](Cc1ccc(O)cc1)C(=O)NCC(=O)N[C@@H](CCCNC(=N)N)C(=O)N[C@@H](CCCCN)C(=O)N[C@@H](CCCCN)C(=O)N[C@@H](CCCNC(=N)N)C(=O)N[C@@H](CCCNC(=N)N)C(=O)N[C@@H](CCC(N)=O)C(=O)N[C@@H](CCCNC(=N)N)C(=O)N[C@@H](CCCNC(=N)N)C(=O)N[C@@H](CCCNC(=N)N)C(=O)O
[1]
  Activity: Non-Toxic
[2]
  Drug uptake: Active
[3]
  Activity: Active
[4]
  Activity: Dose-Dependent Effect
[5]
  Activity: Active
[6]
  Activity: 0.76%
[7]
  Activity: Active
[8]
  Activity: Active
[9]
  Activity: Active
[10]
  Activity: Active
[11]
  Activity: Active
[12]
  Activity: Non-Toxic
[13]
  Activity: Active
[14]
  Activity: Active
[15]
  Activity: inactive
[16]
  Activity: Active
[17]
  Activity: Active
[18]
  Activity: Dose-Dependent Effect
[19]
  viability at 25 µM: 85.6%
[20]
  Activity: Active
[21]
  Stability: Stable
[22]
  Activity: Active
[23]
  Activity: Non-Toxic
[24]
  Activity: Active
[25]
  Activity: Non-Toxic
[26]
  Activity: Active
[27]
  Activity: Active
[28]
  Activity: Non-Toxic
[29]
  Activity: Active
[30]
  Activity: Active
[31]
  Activity: Active
[32]
  Activity: Non-Toxic
[33]
  Activity: inactive
